Measurements from patent US9938322B2, “β-hairpin peptidomimetics” (priority 2013, dated 2018).
*1 amine or outer side, *2 acyl side, *3 side chain or, on linkers, in order; H or OH if unused. Where a SMILES comes first, the peptide text is derived from it. Side-chain parts run from the residue outwards. [ ]: non-standard residue; d: D form. The star is where a group is joined. Phe(4-CF3) = N[C@@H](Cc1ccc(C(F)(F)F)cc1)C(=O)O; Pro(3S-OH) = O=C(O)[C@H]1NCC[C@@H]1O; cisHyp = O=C(O)[C@@H]1C[C@H](O)CN1; Cha = N[C@@H](CC1CCCCC1)C(=O)O; aThr = C[C@H](O)[C@H](N)C(=O)O; Chg = N[C@H](C(=O)O)C1CCCCC1; Tle = CC(C)(C)[C@H](N)C(=O)O; dDab = NCC[C@@H](N)C(=O)O; Orn = NCCC[C@H](N)C(=O)O; Dab = NCC[C@H](N)C(=O)O; Nva = CCC[C@H](N)C(=O)O; Dap = NC[C@H](N)C(=O)O; CO = O=C([*:1])[*:2]; Bn = c1ccc(C*)cc1; NHiPr = CC(C)N*

Tested on: human red blood cells (hRBC)
Assay: Hemolysis of human red blood cells
Type: cell-based
Conditions: red cells of human, 1 h, 100
Protocol: Lyophilized peptides were weighed on a Microbalance (Mettler MT5) and dissolved in sterile water to a final concentration of 1 mg/ml. Stock solutions were kept at +4° C., light protected.
The peptides were tested for their hemolytic activity against human red blood cells (hRBC). Fresh hRBC were washed three times with phosphate buffered saline (PBS) and centrifuged for 10 min at 2000×g. Compounds (100 μg/ml) were incubated with 20% hRBC (v/v) for 1 h at 37° C. and shaking at 300 rpm. The final erythrocyte concentration was approximately 0.9×10^9 cells/ml. A value of 0% and 100% cell lyses, respectively, was determined by incubation of hRBC in the presence of PBS containing 0.001% acetic acid and 2.5% Triton X-100 in H2O, respectively. The samples were centrifuged, the supernatants were 8-fold diluted in PBS buffer and the optical densities (OD) were measured at 540 nm. The 100% lyses value (OD540H2O) gave an OD540 of approximately 0.5-1.0.
Percent hemolysis was calculated as follows: (OD540peptide/OD540H2O)×100%.

SMILES	Hemolysis at 100 μg/ml [%]
CC(C)NC(=O)NC[C@@H]1NC(=O)[C@H](C)NC(=O)[C@H](C(C)(C)C)NC(=O)[C@H](CCN)NC(=O)[C@H](Cc2c[nH]c3ccccc23)NC(=O)[C@H](CCN)NC(=O)[C@@H](CCN)NC(=O)[C@H](CCCN)NC(=O)[C@H](CCN)NC(=O)[C@H](CC2CCCCC2)NC(=O)[C@H](C)NC(=O)[C@H](Cc2c[nH]c3ccccc23)NC(=O)[C@@H]2CCCN2C(=O)[C@H]2CCCN2C1=O [compound 20] (cyclo(WA[Cha][Dab][Orn][dDab][Dab]W[Dab][Tle]A[Dap]([CO-NHiPr])[dP]P))	4
CC(C)[C@@H]1NC(=O)[C@@H]2CCCN2C(=O)[C@H]2CCCN2C(=O)[C@H](CO)NC(=O)[C@H](C)NC(=O)[C@H](C(C)(C)C)NC(=O)[C@H](CCN)NC(=O)[C@H](Cc2c[nH]c3ccccc23)NC(=O)[C@H](CCN)NC(=O)[C@H](CCN)NC(=O)[C@H](CCCN)NC(=O)[C@H](CCN)NC(=O)[C@H](Cc2ccc(O)cc2)NC(=O)[C@H](CO)NC1=O [compound 49] (cyclo(VSY[Dab][Orn][Dab][Dab]W[Dab][Tle]AS[dP]P))	1
CC[C@H](C)[C@@H]1NC(=O)[C@@H]2CCCN2C(=O)[C@H]2CCCN2C(=O)[C@H](CO)NC(=O)[C@H](C)NC(=O)[C@H](C(C)(C)C)NC(=O)[C@H](CCN)NC(=O)[C@H](Cc2c[nH]c3ccccc23)NC(=O)[C@H](CCN)NC(=O)[C@@H](CCN)NC(=O)[C@H](CCCN)NC(=O)[C@H](CCN)NC(=O)[C@H](Cc2ccc(O)cc2)NC(=O)[C@H]([C@H](C)O)NC1=O [compound 86] (cyclo(I[aThr]Y[Dab][Orn][dDab][Dab]W[Dab][Tle]AS[dP]P))	1
CC(C)C[C@@H]1NC(=O)[C@@H]2CCCN2C(=O)[C@H]2CCCN2C(=O)[C@H](CO)NC(=O)[C@H](C)NC(=O)[C@H](C(C)(C)C)NC(=O)[C@H](CCN)NC(=O)[C@H](Cc2c[nH]c3ccccc23)NC(=O)[C@H](CCN)NC(=O)[C@H](CCN)NC(=O)[C@H](CCCCN)NC(=O)[C@H](CCN)NC(=O)[C@H](Cc2ccc(O)cc2)NC(=O)[C@H](CO)NC1=O [compound 26] (cyclo(LSY[Dab]K[Dab][Dab]W[Dab][Tle]AS[dP]P))	1
CC(C)C[C@@H]1NC(=O)[C@@H]2CCCN2C(=O)[C@H]2CCCN2C(=O)[C@H](CO)NC(=O)[C@H](CCN)NC(=O)[C@H](C(C)(C)C)NC(=O)[C@H](CCN)NC(=O)[C@H](Cc2c[nH]c3ccccc23)NC(=O)[C@H](CCN)NC(=O)[C@@H](CCN)NC(=O)[C@H](CCCN)NC(=O)[C@H](CCN)NC(=O)[C@H](Cc2ccc(O)cc2)NC(=O)[C@H](CC(=O)O)NC1=O [compound 114] (cyclo(LDY[Dab][Orn][dDab][Dab]W[Dab][Tle][Dab]S[dP]P))	0.5
C[C@@H]1NC(=O)[C@H](CC2CCCCC2)NC(=O)[C@H](CCN)NC(=O)[C@H](Cc2c[nH]c3ccccc23)NC(=O)[C@H](CCN)NC(=O)[C@@H](CCN)NC(=O)[C@H](CCCN)NC(=O)[C@H](CCN)NC(=O)[C@H](C(C)(C)C)NC(=O)[C@H](CO)NC(=O)[C@H](Cc2ccc(O)cc2)NC(=O)[C@@H]2CCCN2C(=O)[C@H]2CCCN2C(=O)[C@H](CO)NC1=O [compound 66] (cyclo(YS[Tle][Dab][Orn][dDab][Dab]W[Dab][Cha]AS[dP]P))	4
C[C@@H]1NC(=O)[C@H](Cc2c[nH]c3ccccc23)NC(=O)[C@@H]2C[C@H](OCc3ccccc3)CN2C(=O)[C@H]2CCCN2C(=O)[C@H](CO)NC(=O)[C@H](C)NC(=O)[C@H](C(C)(C)C)NC(=O)[C@H](CCN)NC(=O)[C@H](Cc2c[nH]c3ccccc23)NC(=O)[C@H](CCN)NC(=O)[C@H](CCN)NC(=O)[C@H](CCCN)NC(=O)[C@H](CCN)NC(=O)[C@H](CC2CCCCC2)NC1=O [compound 64] (cyclo(WA[Cha][Dab][Orn][Dab][Dab]W[Dab][Tle]AS[dP][cisHyp](Bn)))	3
CC(C)NC(=O)NC[C@@H]1NC(=O)[C@H](Cc2c[nH]c3ccccc23)NC(=O)[C@@H]2CCCN2C(=O)[C@H]2CCCN2C(=O)[C@H](CO)NC(=O)[C@H](C)NC(=O)[C@H](C(C)(C)C)NC(=O)[C@H](CCN)NC(=O)[C@H](Cc2c[nH]c3ccccc23)NC(=O)[C@H](CCN)NC(=O)[C@@H](CCN)NC(=O)[C@H](CCCN)NC(=O)[C@H](CCN)NC(=O)[C@H](CC2CCCCC2)NC1=O [compound 17] (cyclo(W[Dap]([CO-NHiPr])[Cha][Dab][Orn][dDab][Dab]W[Dab][Tle]AS[dP]P))	6
COC[C@@H]1NC(=O)[C@H](C(C)(C)C)NC(=O)[C@H](CCN)NC(=O)[C@H](Cc2c[nH]c3ccccc23)NC(=O)[C@H](CCN)NC(=O)[C@@H](CCN)NC(=O)[C@H](CCCN)NC(=O)[C@H](CCN)NC(=O)[C@H](CC2CCCCC2)NC(=O)[C@H](CN)NC(=O)[C@H](Cc2c[nH]c3ccccc23)NC(=O)[C@@H]2CCCN2C(=O)[C@H]2CCCN2C(=O)[C@H](CO)NC1=O [Ex. 6] (cyclo(W[Dap][Cha][Dab][Orn][dDab][Dab]W[Dab][Tle]S(Me)S[dP]P))	3
CC(C)[C@@H]1NC(=O)[C@@H]2[C@@H](O)CCN2C(=O)[C@H]2CCCN2C(=O)[C@H](CO)NC(=O)[C@H](C)NC(=O)[C@H](C(C)(C)C)NC(=O)[C@H](CCN)NC(=O)[C@H](Cc2c[nH]c3ccccc23)NC(=O)[C@H](CCN)NC(=O)[C@@H](CCN)NC(=O)[C@H](CCCN)NC(=O)[C@H](CCN)NC(=O)[C@H](Cc2ccc(O)cc2)NC(=O)[C@H](CO)NC1=O [compound 56] (cyclo(AS[dP][Pro(3S-OH)]VSY[Dab][Orn][dDab][Dab]W[Dab][Tle]))	1
CCC[C@@H]1NC(=O)[C@@H]2CCCN2C(=O)[C@H]2CCCN2C(=O)[C@H](CO)NC(=O)[C@H](C)NC(=O)[C@H](C(C)(C)C)NC(=O)[C@H](CCN)NC(=O)[C@H](Cc2c[nH]c3ccccc23)NC(=O)[C@H](CCN)NC(=O)[C@@H](CCN)NC(=O)[C@H](CCCN)NC(=O)[C@H](CCN)NC(=O)[C@H](Cc2ccc(C(F)(F)F)cc2)NC(=O)[C@H](CO)NC1=O [compound 106] (cyclo([Nva]S[Phe(4-CF3)][Dab][Orn][dDab][Dab]W[Dab][Tle]AS[dP]P))	2
CC(C)C[C@@H]1NC(=O)[C@@H]2CCCN2C(=O)[C@H]2CCCN2C(=O)[C@H](CO)NC(=O)[C@H](C)NC(=O)[C@H](C(C)(C)C)NC(=O)[C@H](CCN)NC(=O)[C@H](Cc2c[nH]c3ccccc23)NC(=O)[C@H](CCN)NC(=O)[C@@H](CCN)NC(=O)[C@H](CCCNC(=N)N)NC(=O)[C@H](CCN)NC(=O)[C@H](Cc2ccc(O)cc2)NC(=O)[C@H](CO)NC1=O [compound 98] (cyclo(LSY[Dab]R[dDab][Dab]W[Dab][Tle]AS[dP]P))	1
CCC[C@@H]1NC(=O)[C@@H]2CCCN2C(=O)[C@H]2CCCN2C(=O)[C@H](CO)NC(=O)[C@H](CO)NC(=O)[C@H](C(C)(C)C)NC(=O)[C@H](CCN)NC(=O)[C@H](Cc2c[nH]c3ccccc23)NC(=O)[C@H](CCN)NC(=O)[C@@H](CCN)NC(=O)[C@H](CCCN)NC(=O)[C@H](CCN)NC(=O)[C@H](CC2CCCCC2)NC(=O)[C@H](CO)NC1=O [compound 144] (cyclo([Nva]S[Cha][Dab][Orn][dDab][Dab]W[Dab][Tle]SS[dP]P))	7
C[C@@H]1NC(=O)[C@H](C(C)(C)C)NC(=O)[C@H](CCN)NC(=O)[C@H](Cc2c[nH]c3ccccc23)NC(=O)[C@H](CCN)NC(=O)[C@@H](CCN)NC(=O)[C@H](CCCN)NC(=O)[C@H](CCN)NC(=O)[C@H](Cc2ccc(O)cc2)NC(=O)[C@H](CO)NC(=O)[C@H](Cc2ccc(O)cc2)NC(=O)[C@@H]2CCCN2C(=O)[C@H]2CCCN2C(=O)[C@H](CO)NC1=O [compound 21] (cyclo(YSY[Dab][Orn][dDab][Dab]W[Dab][Tle]AS[dP]P))	1
CC(C)C[C@@H]1NC(=O)[C@@H]2CCCN2C(=O)[C@H]2CCCN2C(=O)[C@H](CO)NC(=O)[C@H](C)NC(=O)[C@H](C(C)(C)C)NC(=O)[C@H](CCN)NC(=O)[C@H](Cc2c[nH]c3ccccc23)NC(=O)[C@H](CCCNC(=N)N)NC(=O)[C@@H](CCN)NC(=O)[C@H](CCCN)NC(=O)[C@H](CCN)NC(=O)[C@H](Cc2ccc(O)cc2)NC(=O)[C@H](CO)NC1=O [compound 102] (cyclo(LSY[Dab][Orn][dDab]RW[Dab][Tle]AS[dP]P))	0
CC(C)C[C@@H]1NC(=O)[C@@H]2CCCN2C(=O)[C@H]2CCCN2C(=O)[C@H](CO)NC(=O)[C@H](C)NC(=O)[C@H](C(C)(C)C)NC(=O)[C@H](CCN)NC(=O)[C@H](Cc2c[nH]c3ccccc23)NC(=O)[C@H](CCN)NC(=O)[C@@H](CCN)NC(=O)[C@H](CCCN)NC(=O)[C@H](CCN)NC(=O)[C@H](Cc2c[nH]c3ccccc23)NC(=O)[C@H](CO)NC1=O [compound 33] (cyclo(LSW[Dab][Orn][dDab][Dab]W[Dab][Tle]AS[dP]P))	3.5
CCC[C@@H]1NC(=O)[C@@H]2CCCN2C(=O)[C@H]2CCCN2C(=O)[C@H]([C@@H](C)O)NC(=O)[C@H](CO)NC(=O)[C@H](C2CCCCC2)NC(=O)[C@H](CCN)NC(=O)[C@H](Cc2c[nH]c3ccccc23)NC(=O)[C@H](CCN)NC(=O)[C@@H](CCN)NC(=O)[C@H](CCN)NC(=O)[C@H](CCN)NC(=O)[C@H](Cc2ccc(O)cc2)NC(=O)[C@H](C)NC1=O [compound 132] (cyclo([Nva]AY[Dab][Dab][dDab][Dab]W[Dab][Chg]ST[dP]P))	1.5
CC(C)C[C@@H]1NC(=O)[C@@H]2CCCN2C(=O)[C@H]2CCCN2C(=O)[C@H](CO)NC(=O)[C@H](C)NC(=O)[C@H](C(C)C)NC(=O)[C@H](CCN)NC(=O)[C@H](Cc2c[nH]c3ccccc23)NC(=O)[C@H](CCN)NC(=O)[C@@H](CCN)NC(=O)[C@H](CCCN)NC(=O)[C@H](CCN)NC(=O)[C@H](Cc2ccc(O)cc2)NC(=O)[C@H](CO)NC1=O [compound 35] (cyclo(LSY[Dab][Orn][dDab][Dab]W[Dab]VAS[dP]P))	1
